For assay [1], the system named is Cavia porcellus. Description: Percentage decrease in bronchodilator activity against serotonin-induced bronchospasm reaction in guinea pig by intraveneous administration at dose 250 ug/kg. In kind it is functional.
Assay [2] relates to Cavia porcellus. In words: Percent decrease in bronchodilator activity against acetylcholine-induced bronchospasm reaction in guinea pig by intraveneous administration at dose 250 ug/kg. In kind it is functional.
In assay [3] the test system is Rattus norvegicus. In words: Percent decrease in antiallergic activity by antigen/antibody reaction assay in rat by oral administration at a dose of 10 mg/kg. The format is functional.
Assay [4] concerns Rattus norvegicus. Description: Percentage decrease in antiallergic activity against cutaneous reaction to histamine in rat, by oral administration at a dose of 10 mg/kg. The format is functional.
For assay [5], the system named is Rattus norvegicus. Description: Percent protection against Passive Cutaneous Anaphylaxis in rat after 2.0 hr at dose 100 mg/kg by peroral administration through antigen or antibody reaction. The format is functional. The following applies: route oral.
Assay [6] has as its system Rattus norvegicus. Description: Percent protection against Passive Cutaneous Anaphylaxis in rat after 2.0 hr at dose 100 mg/kg by peroral administration through exogenous histamine reaction. In kind it is functional. The following applies: route oral.
The test system of assay [7] is Rattus norvegicus. Description: Percent protection against Passive Cutaneous Anaphylaxis in rat after 3.0 hh at dose 100 mg/kg by peroral administration through antigen or antibody reaction. The format is functional. The following applies: route oral.
Assay [8] concerns Rattus norvegicus. In words: Percent protection against Passive Cutaneous Anaphylaxis in rat after 3.0 hh at dose 100 mg/kg by peroral administration through exogenous histamine reaction. The format is functional. The following applies: route oral.
The subject of assay [9] is Rattus norvegicus. In words: Percent protection against Passive Cutaneous Anaphylaxis in rat after 4.0h at dose 100 mg/kg by peroral administration through antigen or antibody reaction. The format is functional. Particulars: route oral.
In assay [10] the test system is Rattus norvegicus. In words: Percent protection against Passive Cutaneous Anaphylaxis in rat after 4.0h at dose 100 mg/kg by peroral administration through exogenous histamine reaction. In kind it is functional. The following applies: route oral.
For assay [11], the system named is Rattus norvegicus. Description: Percent protection against Passive Cutaneous Anaphylaxis in rat after 0.25 hr at dose 100 mg/kg by peroral administration through antigen or antibody reaction. The format is functional. Particulars: route oral.
For assay [12], the system named is Rattus norvegicus. In words: Percent protection against Passive Cutaneous Anaphylaxis in rat after 0.25 hr at dose 100 mg/kg by peroral administration through exogenous histamine reaction. Particulars: route oral. The format is functional.
The test system of assay [13] is Rattus norvegicus. Description: Percent protection against Passive Cutaneous Anaphylaxis in rat after 1.0 hr at dose 100 mg/kg by peroral administration through antigen or antibody reaction. The format is functional. The following applies: route oral.
For assay [14], the system named is Rattus norvegicus. In words: Percent protection against Passive Cutaneous Anaphylaxis in rat after 1.0 hr at dose 100 mg/kg by peroral administration through exogenous histamine reaction. The following applies: route oral. The format is functional.
For assay [15], the system named is Cavia porcellus. Description: Percent decrease in bronchodilator activity against histamine-induced bronchospasm reaction in guinea pig by intraveneous administration at dose 10.5 ug/kg.
Assay [16] relates to Cavia porcellus. In words: Percent decrease in bronchodilator activity against histamine-induced bronchospasm reaction in guinea pig by intraveneous administration at dose 4 mg/kg.
Assay [17] concerns Cavia porcellus. Description: Percent decrease in bronchodilator activity against histamine-induced bronchospasm reaction in guinea pig by intraveneous administration at dose 250 ug/kg. In kind it is functional.

`Cn1c(=O)c2c(ncn2CCCN2CCN(CCCSc3ccccc3)CC2)n(C)c1=O`: the Decrease in the assay on Cavia porcellus [1] is listed as 69%; in the assay with Cavia porcellus [2], 23%; in the assay on Rattus norvegicus [3] it was 60%; in the assay with Rattus norvegicus [4], 62%; with Cavia porcellus [15], 95%. Further, the Protection in the assay with Rattus norvegicus [5] was found to be 45%; with Rattus norvegicus [6], 28%; with Rattus norvegicus [7], 0%; with Rattus norvegicus [8], 0%; in the assay with Rattus norvegicus [9], 0%; with Rattus norvegicus [10], 0%. In addition, the Protection in the assay with Rattus norvegicus [11] stood at 98%; in the assay on Rattus norvegicus [12] it was 46%; with Rattus norvegicus [13] it was 45%; in the assay on Rattus norvegicus [14] it was 23%.
Take `Cn1c(=O)c2c(ncn2CC(O)CN2CCN(CCCSc3ccccc3)CC2)n(C)c1=O` (stereo not given) [TAZIFYLLINE]: the Decrease in the assay on Cavia porcellus [1] stood at 26%; in the assay with Cavia porcellus [2], 23%; in the assay on Rattus norvegicus [3], 54%; in the assay with Rattus norvegicus [4], 65%; in the assay on Cavia porcellus [15], 76%. The Protection was 82% in the assay with Rattus norvegicus [5]; 33% with Rattus norvegicus [6]; 74% in the assay on Rattus norvegicus [7]; 52% in the assay with Rattus norvegicus [8]; 44% in the assay with Rattus norvegicus [9]; 39% in the assay on Rattus norvegicus [10]. In addition, the Protection in the assay on Rattus norvegicus [11] came out at 100%; in the assay with Rattus norvegicus [12], 52%; in the assay with Rattus norvegicus [13], 98%; in the assay on Rattus norvegicus [14], 49%.
For the molecule `Cc1ccc(SCCCN2CCN(CC(O)Cn3cnc4c3c(=O)n(C)c(=O)n4C)CC2)cc1` (stereo not given), the Decrease in the assay on Cavia porcellus [1] amounted to 0%; with Cavia porcellus [2] it was 0%; in the assay with Rattus norvegicus [3] it was 19%; in the assay on Rattus norvegicus [4], 24%; in the assay with Cavia porcellus [15], 5%.
For `Cn1c(=O)c2c(ncn2CC(O)CN2CCN(CCCCSc3ccc(Cl)cc3)CC2)n(C)c1=O` (stereo not given), the Decrease with Cavia porcellus [1], with Cavia porcellus [2], with Rattus norvegicus [3], in the assay on Rattus norvegicus [4] and in the assay on Cavia porcellus [15] was 0% throughout.
In the case of `Cc1ccc(SCCCN2CCN(CCCn3cnc4c3c(=O)n(C)c(=O)n4C)CC2)cc1`, the Decrease in the assay with Cavia porcellus [1] amounted to 24%; in the assay on Cavia porcellus [2], 35%; with Rattus norvegicus [3] it was 0%; in the assay on Rattus norvegicus [4] it was 0%; in the assay on Cavia porcellus [15], 15%.
`Cn1cnc2c1c(=O)n(CCCN1CCN(CCCOc3ccccc3)CC1)c(=O)n2C`: the Decrease with Cavia porcellus [1] is listed as 47%; in the assay with Cavia porcellus [2], 30%; in the assay on Rattus norvegicus [3], 23%; with Rattus norvegicus [4], 0%; with Cavia porcellus [15], 28%.
In the same order, the values of `CC(CN1c2ccccc2Sc2ccccc21)N(C)C` (stereo not given) [PROMETHAZINE] are 0%, 0%, 30%, 58% and 40%.
In the same order, the values of `COc1ccc(OCCCN2CCN(CCCn3cnc4c3c(=O)n(C)c(=O)n4C)CC2)cc1` are 0%, 25%, 0%, 0% and 60%.
For `Cn1c(=O)c2nc[nH]c2n(C)c1=O.O` [THEOPHYLLINE], the Decrease with Cavia porcellus [1] came out at 59%; in the assay with Cavia porcellus [2], 72%; with Rattus norvegicus [3] it was 45%; in the assay on Rattus norvegicus [4] it was 15%; in the assay on Cavia porcellus [16] it was 56%.
As to `Cn1c(=O)c2c(ncn2CC(O)CN2CCCN(CCCSc3ccccc3)CC2)n(C)c1=O` (stereo not given), the Decrease stood at 0% in the assay on Cavia porcellus [1]; 0% with Cavia porcellus [2]; 0% in the assay on Rattus norvegicus [3]; 4% in the assay on Rattus norvegicus [4]; 74% with Cavia porcellus [15].
With `Cn1c(=O)c2c(ncn2CN2CCN(CCCSc3ccccc3)CC2)n(C)c1=O`, the Decrease in the assay on Cavia porcellus [1] amounted to 0%; in the assay with Cavia porcellus [2] it was 0%; in the assay with Rattus norvegicus [3] it was 0%; with Rattus norvegicus [4], 0%; in the assay with Cavia porcellus [15], 9%.
Take `Cn1c(=O)c2c(ncn2CCC(=O)N2CCN(CCCSc3ccccc3)CC2)n(C)c1=O`: the Decrease in the assay on Cavia porcellus [1] was determined as 0%; in the assay with Cavia porcellus [2], 3%; in the assay on Rattus norvegicus [3], 0%; in the assay with Rattus norvegicus [4], 0%; in the assay on Cavia porcellus [15] it was 2%.
Turning to `CC(=O)OC(CN1CCN(CCCSc2ccccc2)CC1)Cn1cnc2c1c(=O)n(C)c(=O)n2C` (stereo not given), the Decrease in the assay on Cavia porcellus [17] is recorded as 50%; with Cavia porcellus [1] it was 29%; in the assay with Cavia porcellus [2] it was 17%; in the assay with Rattus norvegicus [3], 54%; in the assay with Rattus norvegicus [4], 62%.
`Cn1c(=O)c2c(ncn2CCCN2CCN(CCCCSc3ccc(Cl)cc3)CC2)n(C)c1=O`: the Decrease is 23% with Cavia porcellus [1]; 26% with Cavia porcellus [2]; 0% in the assay with Rattus norvegicus [3]; 0% in the assay on Rattus norvegicus [4]; 3% with Cavia porcellus [15].
For the molecule `Cn1cnc2c1c(=O)n(CC(O)CN1CCN(CCCSc3ccccc3)CC1)c(=O)n2C` (stereo not given), the Decrease was 96% in the assay with Cavia porcellus [1]; 24% with Cavia porcellus [2]; 43% in the assay with Rattus norvegicus [3]; 10% in the assay with Rattus norvegicus [4]; 66% with Cavia porcellus [15].
In the same order, the values of `Cn1cnc2c1c(=O)n(CCCN1CCN(CC(O)CSc3ccccc3)CC1)c(=O)n2C` (stereo not given) are 3%, 2%, 0%, 0% and 25%.
The corresponding values for `Cn1c(=O)c2c(ncn2CCCN2CCN(CC(O)CSc3ccccc3)CC2)n(C)c1=O` (stereo not given) are 0%, 0%, 0%, 0% and 88%.
